ChEMBL document CHEMBL3832761, “MMV Pathogen Box Bioactivity Data” (2017)
Active and inactive are the calls of the source. The rule behind the calls is not given here.

Assays:
[1] = test system: Schistosoma mansoni; test: AntiSchistosoma mansoni activity Juveniles IC50 (uM); format: functional, organism-based
[2] = test system: Schistosoma mansoni; test: AntiSchistosoma mansoni activity Adults IC50 (uM); format: functional, organism-based
[3] = test system: Schistosoma mansoni; test: AntiSchistosoma mansoni activity Newly Transformed Schistosomula: inhibition at 10 uM at 72h (%); format: functional
[4] = test system: HepG2; test: Cytotoxicity data HepG2 CC20 (uM); format: functional
[5] = test system: Trypanosoma cruzi; test: AntiTrypanosoma cruzi activity IC50 (uM); format: functional, organism-based
[6] = test system: Trypanosoma brucei; test: AntiTrypanosoma brucei activity T. b. brucei IC50 (uM); format: functional, organism-based
[7] = test system: Trypanosoma brucei; test: AntiTrypanosoma brucei activity T. b. rhodesiense IC50 (uM); format: functional, organism-based
[8] = test system: Leishmania major; test: AntiLeishmania activity L. major IC50 (uM); format: functional, organism-based
[9] = test system: Leishmania infantum; test: AntiLeishmania activity L. infantum (macrophages) IC50 (uM); format: functional, organism-based
[10] = test system: Leishmania donovani; test: AntiLeishmania activity L. donovani (axenic) IC50 (uM); format: functional, organism-based
[11] = test system: Leishmania donovani; test: AntiLeishmania activity L. donovani (macrophages) IC50 (uM); format: functional, organism-based
[12] = test system: Leishmania; test: AntiLeishmania activity Toxicity on infected PMM (uM); format: functional
[13] = test system: L6; test: L6 CC50 (uM) Cytotoxicity; format: functional; settings: Rattus norvegicus
[14] = test system: MRC5; test: MRC5 CC50 (uM) Cytotoxicity; format: functional; settings: Homo sapiens
[15] = PMM CC50 (uM) Cytotoxicity; format: functional; settings: Macrophage
[16] = test system: Brugia pahangi; test: AntiBrugia pahangi activity Average inhibition motility at 10 uM (%); format: functional
[17] = test system: Onchocerca gutturosa; test: AntiOnchocerca activity O. gutturosa adult males: Motility reduction at 12.5 uM (%); format: functional; design: scale not given: the % may be the effect or the level left
[18] = test system: Onchocerca gutturosa; test: AntiOnchocerca activity O. gutturosa adult males: MTT reduction at 12.5 uM (%); format: functional; design: scale not given: the % may be the effect or the level left
[19] = test system: Onchocerca lienalis; test: AntiOnchocerca activity O. lienalis microfilariae Motility reduction (%); format: functional; design: concentration or dose not given beside the values
[20] = test system: Onchocerca ochengi; test: AntiOnchocerca activity O. ochengi adult females: final mean inhibition motility at 10 uM on Day 7 (%); format: functional
[21] = test system: Onchocerca ochengi; test: AntiOnchocerca activity O. ochengi adult males: final mean inhibition motility at 10 uM on Day 5 (%); format: functional
[22] = test system: Onchocerca volvulus; test: AntiOnchocerca activity O. volvulus L3 Molting assay: inhibition at 10 uM (%); format: functional
[23] = HL60 CC50 (uM) Cytotoxicity; format: functional; settings: HL-60
[24] = test system: Schistosoma mansoni; test: AntiSchistosoma mansoni activity Larva IC50 (uM); format: functional, organism-based
[25] = test system: Schistosoma mansoni; test: AntiSchistosoma mansoni activity Newly Transformed Schistosomula: IC50 at 72h (uM); format: functional, organism-based
[26] = test system: Schistosoma mansoni; test: AntiSchistosoma mansoni activity Adults: Effect at 10 uM after 48h; format: functional, organism-based
[27] = test system: Cryptosporidium parvum; test: AntiCryptosporidium parvum activity Compounds added at t0, IC 50 (uM); format: functional, organism-based
[28] = test system: Toxoplasma gondii; test: AntiToxoplasma gondii activity data Inhibition of plaque forming efficiency (%) Experiment A; format: functional; design: concentration or dose not given beside the values
[29] = test system: Toxoplasma gondii; test: AntiToxoplasma gondii activity data 2-day killing assay: inhibition at 10 uM (%) Experiment C; format: functional; settings: 48 h
[30] = test system: Toxoplasma gondii; test: AntiToxoplasma gondii activity data 2-day killing assay: inhibition at 10 uM (%) Experiment D; format: functional
[31] = test system: Toxoplasma gondii; test: AntiToxoplasma gondii activity data 2-day killing assay: inhibition at 10 uM (%) Experiment E; format: functional
[32] = test system: Toxoplasma gondii; test: AntiToxoplasma gondii activity data 2-day killing assay: IC50 (uM), Experiment F; format: functional, organism-based; settings: Toxoplasma gondii, 48 h; read-out: IC50
[33] = test system: Toxoplasma gondii; test: AntiToxoplasma gondii activity data 2-day killing assay: IC50 (uM), Experiment G; format: functional, organism-based
[34] = test system: Cryptosporidium parvum; test: AntiCryptosporidium parvum activity Compounds added 3h after t0, IC 50 (uM); format: functional, organism-based

Row | IC50 [1] [µM] | IC50 [5] [µM] | IC50 [6] [µM] | IC50 [7] [µM] | IC50 [8] [µM] | IC50 [9] [µM] | SMILES | Inhibition [3] [%] | CC20 [4] [µM] | CC50 [14] [µM] | CC50 [15] [µM] | other results
1 | 3.88 |  |  |  |  |  | Cc1cc(OCC(=O)Nc2ccc(C(C)C)cc2)n(C)c(=O)c1C#N | 13.3 | >80 |  |  | IC50 [2]: 7.2 µM
2 |  | 0.97 | 6.61 | 5.62 | 8.96 | 4.03 | Cc1nc(-c2ccccn2)nc(N2CCC(Cc3ccccc3)C2)c1Cl (stereo not given) |  | 10.2 | 15.5 | 16 | IC50 [10]: 0.03 µM; IC50 [11]: 4.2 µM; Toxicity on infected macrophages [12]: 16.7 µM; CC50 [13]: 15.2 µM
3 |  |  |  |  |  |  | CC(C)(C)c1ccc(N[C@@H]2CCCC[C@H]2NC(=O)c2ccco2)cc1 |  | 35.9 |  |  | Inhibition [16]: 3%; Activity [17]: 50%; Activity [18]: 37.7%; Activity [19]: 13.3%; Inhibition [20]: 0%; Inhibition [21]: 1%; Inhibition [22]: 80%; CC50 [23]: > 50 µM
4 |  | 4.03 | > 32 | 13.1 | 10.4 | > 32 | Nc1ccc2ncnc(Nc3ccc(OCc4cccc(F)c4)c(Cl)c3)c2c1 |  | 9.72 | > 32 | > 32 | 
5 | 2.1 |  |  |  |  |  | c1ccc(Oc2ccc(-c3cncc(-c4ccc5[nH]ccc5c4)n3)cc2)cc1 | 100 | 25.7 | 20 |  | IC50 [24]: 1.4 µM; IC50 [2]: 3.7 µM; IC50 [25]: 0.27 µM; Activity [26]: Active
6 | 7.02 |  |  |  |  |  | COc1ccc(-c2onc(C(F)(F)F)c2-c2ccc(Cl)cc2)c(O)c1 | 20 |  | 8.3 |  | IC50 [24]: 3.36 µM; IC50 [2]: 5.3 µM
7 | 4.05 |  |  |  |  |  | Cc1nn(C(=O)Nc2cccc(C(F)(F)F)c2)c(C)c1Sc1ncccn1 | 33.3 | 30.7 |  |  | IC50 [2]: 2 µM; Activity [26]: Active
8 |  | 9.37 | 3.89 | 2.7 | 13 | 10.2 | CC(C)(C)OC(=O)N1CCN(c2cc(-c3ccc(Oc4ccccc4)cc3)n[nH]2)CC1 |  | 4.03 | > 32 | 16 | IC50 [10]: 1.32 µM; IC50 [11]: > 10 µM; Toxicity on infected macrophages [12]: 20 µM; CC50 [13]: 4.8 µM
9 |  |  |  |  |  |  | COCC(C)NC(=O)CSc1ncnc2sc(-c3ccccc3)cc12 (stereo not given) | 50 | >80 |  |  | Activity [26]: inactive
10 |  | 3.81 | 3.78 | 0.96 | 8.51 | 2.54 | CN1CCN(S(=O)(=O)c2ccc(-c3ccc4c(Nc5ncc(Cl)cn5)ccnc4c3)cc2)CC1 |  | 8 | > 32 | 4 | 
11 |  | 0.95 | 5.31 | 3.07 | 12.4 | > 32 | O=C(CN1CCOCC1)Nc1ccc2ncnc(Nc3ccc(OCc4cccc(F)c4)c(Cl)c3)c2c1 |  | 10.9 | 6.4 | > 32 | 
12 | 5.7 |  |  |  |  |  | COc1ccc(-c2cnc3cnc(-c4cccc(OC(C)C)c4)cn23)cc1 | 93 | 24.3 | 40.1 |  | IC50 [24]: 6.7 µM; IC50 [2]: 4.9 µM; IC50 [25]: 1.18 µM; Activity [26]: Active
13 |  |  |  |  |  |  | CCOc1ccc2cc(-c3nn(CC4CCN(C)CC4)c4ncnc(N)c34)ccc2c1 |  |  |  |  | IC50 [27]: 0.05 µM
14 |  |  |  |  |  |  | Nc1ncnc2[nH]nc(Cc3cccc4ccccc34)c12 |  |  |  |  | Inhibition [28]: 100%; inhibition at 10 µM [29]: 54.7%; Inhibition [30]: 89.2%; Inhibition [31]: 63.3%; IC50 [32]: 2.31 µM; IC50 ([33]; Toxoplasma gondii, 48 h, read-out: IC50): 3.05 µM; CC50 [23]: > 25 µM
15 |  |  |  |  |  |  | Cc1cc(NC(=O)c2ccc(Oc3ccc(Cl)cc3O)o2)no1 |  |  |  |  | Inhibition [28]: ~85%; inhibition at 10 µM [29]: 70%; Inhibition [30]: 64.8%; Inhibition [31]: 22%; IC50 [32]: 7.32 µM; IC50 [33]: no inhibition; CC50 [23]: > 50 µM
16 |  | 1.08 | 0.26 | < 0.13 | 3.15 | 1.15 | Cc1ncc(-c2ccnc(Nc3ccc(S(C)(=O)=O)cc3)n2)n1C(C)C [AZD-5438] |  | 0.18 | 1 | 4 | 
17 |  |  |  |  |  |  | O=C(c1ccc(F)cc1)N(CCNc1ccccc1)c1ccccc1 |  | 18.5 |  |  | Inhibition [16]: 17%; Activity [17]: 28.6%; Activity [18]: 0%; Activity [19]: 13.3%; Inhibition [20]: 0%; Inhibition [21]: 0%; Inhibition [22]: 89%; CC50 [23]: > 50 µM
18 |  |  |  |  |  |  | COc1cc(NC(=O)Cc2nn(C)c(=O)c3ccccc23)ccc1Cl |  | >80 |  |  | IC50 [34]: 0.68 µM; IC50 [27]: < 0.1 µM; CC50 [23]: > 50 µM
19 | 3.7 |  |  |  |  |  | CNc1nnc(Sc2cnn(-c3ccccc3)c(=O)c2Cl)s1 | 100 | 1.55 |  |  | IC50 [25]: 0.15 µM
